Measured values reported in PMC12670405, “Second-Generation AURKA-Targeting PROTACs: Structural Optimization toward in Vivo Degradation in Neuroblastoma” (Journal of Medicinal Chemistry, 2025).

Key:
Test in all cases: KINOMEscan scanMAX
Type in all cases: binding
AKT3 = target: T1, AKT3 (Homo sapiens, UniProt Q9Y243); settings: read-out: Percent Control
T1 construct: purchased Eurofins Discovery (DiscoverX KINOMEscan scanMAX)
Description: (§1) The kinome-wide binding assay was performed by Eurofins Discovery using the scanMAX screening platform. More information can be found on the Eurofins Discovery Web site.

MRCKA = target: T2, MRCKA (Homo sapiens, UniProt Q5VT25); settings: read-out: Percent Control
T2 construct: purchased Eurofins Discovery (DiscoverX KINOMEscan scanMAX)
Description: as §1

SNRK = target: T3, SNRK (Homo sapiens, UniProt Q9NRH2); settings: read-out: Percent Control
T3 construct: purchased Eurofins Discovery (DiscoverX KINOMEscan scanMAX)
Description: as §1

PCTK1 = target: T4, PCTK1 (Homo sapiens, UniProt Q00536); settings: read-out: Percent Control
T4 construct: purchased Eurofins Discovery (DiscoverX KINOMEscan scanMAX)
Description: as §1

ROCK2 = target: T5, ROCK2 (Homo sapiens, UniProt O75116); settings: read-out: Percent Control
T5 construct: purchased Eurofins Discovery (DiscoverX KINOMEscan scanMAX)
Description: as §1

ULK3 = target: T6, ULK3 (Homo sapiens, UniProt Q6PHR2); settings: read-out: Percent Control
T6 construct: purchased Eurofins Discovery (DiscoverX KINOMEscan scanMAX)
Description: as §1

PAK6 = target: T7, PAK6 (Homo sapiens, UniProt Q9NQU5); settings: read-out: Percent Control
T7 construct: purchased Eurofins Discovery (DiscoverX KINOMEscan scanMAX)
T7 sequence (Q9NQU5 whole entry): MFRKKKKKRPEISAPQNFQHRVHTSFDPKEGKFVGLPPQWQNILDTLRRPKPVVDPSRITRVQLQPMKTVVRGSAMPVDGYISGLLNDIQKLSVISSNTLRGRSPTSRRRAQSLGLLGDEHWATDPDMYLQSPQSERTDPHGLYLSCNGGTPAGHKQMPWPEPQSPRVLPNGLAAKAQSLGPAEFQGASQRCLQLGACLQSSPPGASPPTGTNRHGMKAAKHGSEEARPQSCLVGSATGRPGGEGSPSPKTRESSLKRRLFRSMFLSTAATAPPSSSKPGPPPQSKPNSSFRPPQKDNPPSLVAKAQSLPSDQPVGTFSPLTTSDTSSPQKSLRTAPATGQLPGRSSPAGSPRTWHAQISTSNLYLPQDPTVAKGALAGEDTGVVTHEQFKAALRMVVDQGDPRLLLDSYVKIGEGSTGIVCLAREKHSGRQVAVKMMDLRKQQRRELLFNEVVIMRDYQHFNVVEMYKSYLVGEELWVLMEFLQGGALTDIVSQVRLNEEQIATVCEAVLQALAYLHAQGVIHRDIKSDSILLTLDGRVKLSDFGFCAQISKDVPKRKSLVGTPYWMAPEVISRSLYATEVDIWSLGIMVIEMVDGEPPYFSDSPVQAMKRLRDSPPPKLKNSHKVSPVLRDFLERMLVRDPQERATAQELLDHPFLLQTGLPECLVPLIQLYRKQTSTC
Description: as §1

LYN = target: T8, LYN (Homo sapiens, UniProt P07948); settings: read-out: Percent Control
T8 construct: purchased Eurofins Discovery (DiscoverX KINOMEscan scanMAX)
T8 sequence (P07948 whole entry): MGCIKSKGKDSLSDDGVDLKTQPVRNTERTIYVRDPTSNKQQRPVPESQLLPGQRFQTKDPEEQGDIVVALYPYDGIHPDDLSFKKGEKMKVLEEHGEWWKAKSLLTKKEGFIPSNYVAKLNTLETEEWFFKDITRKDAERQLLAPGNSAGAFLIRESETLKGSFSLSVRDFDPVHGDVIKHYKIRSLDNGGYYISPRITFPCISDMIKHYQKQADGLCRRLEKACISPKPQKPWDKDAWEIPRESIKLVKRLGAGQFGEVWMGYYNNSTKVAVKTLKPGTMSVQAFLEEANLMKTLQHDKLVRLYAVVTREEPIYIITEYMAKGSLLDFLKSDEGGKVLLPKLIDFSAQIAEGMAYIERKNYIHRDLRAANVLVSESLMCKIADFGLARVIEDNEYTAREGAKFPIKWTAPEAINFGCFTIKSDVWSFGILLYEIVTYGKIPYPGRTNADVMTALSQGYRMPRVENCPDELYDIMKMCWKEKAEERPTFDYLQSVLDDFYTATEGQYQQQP
Description: as §1

PIP5K1A = target: T9, PIP5K1A (Homo sapiens, UniProt Q99755); settings: read-out: Percent Control
T9 construct: purchased Eurofins Discovery (DiscoverX KINOMEscan scanMAX)
Description: as §1

RIPK1 = target: T10, RIPK1 (Homo sapiens, UniProt Q13546); settings: read-out: Percent Control
T10 construct: purchased Eurofins Discovery (DiscoverX KINOMEscan scanMAX)
Description: as §1

IRAK3 = target: T11, IRAK3 (Homo sapiens, UniProt Q9Y616); settings: read-out: Percent Control
T11 construct: purchased Eurofins Discovery (DiscoverX KINOMEscan scanMAX)
Description: as §1

EGFR(G719S) = target: T12, EGFR(G719S) (Homo sapiens, UniProt P00533, G719S); settings: read-out: Percent Control
T12 construct: purchased Eurofins Discovery (DiscoverX KINOMEscan scanMAX)
Description: as §1

BRAF = target: T13, BRAF (Homo sapiens, UniProt P15056); settings: read-out: Percent Control
T13 construct: purchased Eurofins Discovery (DiscoverX KINOMEscan scanMAX)
Description: as §1

CAMK4 = target: T14, CAMK4 (Homo sapiens, UniProt Q16566); settings: read-out: Percent Control
T14 construct: purchased Eurofins Discovery (DiscoverX KINOMEscan scanMAX)
Description: as §1

EIF2AK1 = target: T15, EIF2AK1 (Homo sapiens, UniProt Q9BQI3); settings: read-out: Percent Control
T15 construct: purchased Eurofins Discovery (DiscoverX KINOMEscan scanMAX)
Description: as §1

PAK7 = target: T16, PAK7 (Homo sapiens, UniProt Q9P286); settings: read-out: Percent Control
T16 construct: purchased Eurofins Discovery (DiscoverX KINOMEscan scanMAX)
Description: as §1

TNIK = target: T17, TNIK (Homo sapiens, UniProt Q9UKE5); settings: read-out: Percent Control
T17 construct: purchased Eurofins Discovery (DiscoverX KINOMEscan scanMAX)
Description: as §1

PRKCD = target: T18, PRKCD (Homo sapiens, UniProt Q05655); settings: read-out: Percent Control
T18 construct: purchased Eurofins Discovery (DiscoverX KINOMEscan scanMAX)
Description: as §1

ERBB4 = target: T19, ERBB4 (Homo sapiens, UniProt Q15303); settings: read-out: Percent Control
T19 construct: purchased Eurofins Discovery (DiscoverX KINOMEscan scanMAX)
T19 sequence (Q15303 26-1308): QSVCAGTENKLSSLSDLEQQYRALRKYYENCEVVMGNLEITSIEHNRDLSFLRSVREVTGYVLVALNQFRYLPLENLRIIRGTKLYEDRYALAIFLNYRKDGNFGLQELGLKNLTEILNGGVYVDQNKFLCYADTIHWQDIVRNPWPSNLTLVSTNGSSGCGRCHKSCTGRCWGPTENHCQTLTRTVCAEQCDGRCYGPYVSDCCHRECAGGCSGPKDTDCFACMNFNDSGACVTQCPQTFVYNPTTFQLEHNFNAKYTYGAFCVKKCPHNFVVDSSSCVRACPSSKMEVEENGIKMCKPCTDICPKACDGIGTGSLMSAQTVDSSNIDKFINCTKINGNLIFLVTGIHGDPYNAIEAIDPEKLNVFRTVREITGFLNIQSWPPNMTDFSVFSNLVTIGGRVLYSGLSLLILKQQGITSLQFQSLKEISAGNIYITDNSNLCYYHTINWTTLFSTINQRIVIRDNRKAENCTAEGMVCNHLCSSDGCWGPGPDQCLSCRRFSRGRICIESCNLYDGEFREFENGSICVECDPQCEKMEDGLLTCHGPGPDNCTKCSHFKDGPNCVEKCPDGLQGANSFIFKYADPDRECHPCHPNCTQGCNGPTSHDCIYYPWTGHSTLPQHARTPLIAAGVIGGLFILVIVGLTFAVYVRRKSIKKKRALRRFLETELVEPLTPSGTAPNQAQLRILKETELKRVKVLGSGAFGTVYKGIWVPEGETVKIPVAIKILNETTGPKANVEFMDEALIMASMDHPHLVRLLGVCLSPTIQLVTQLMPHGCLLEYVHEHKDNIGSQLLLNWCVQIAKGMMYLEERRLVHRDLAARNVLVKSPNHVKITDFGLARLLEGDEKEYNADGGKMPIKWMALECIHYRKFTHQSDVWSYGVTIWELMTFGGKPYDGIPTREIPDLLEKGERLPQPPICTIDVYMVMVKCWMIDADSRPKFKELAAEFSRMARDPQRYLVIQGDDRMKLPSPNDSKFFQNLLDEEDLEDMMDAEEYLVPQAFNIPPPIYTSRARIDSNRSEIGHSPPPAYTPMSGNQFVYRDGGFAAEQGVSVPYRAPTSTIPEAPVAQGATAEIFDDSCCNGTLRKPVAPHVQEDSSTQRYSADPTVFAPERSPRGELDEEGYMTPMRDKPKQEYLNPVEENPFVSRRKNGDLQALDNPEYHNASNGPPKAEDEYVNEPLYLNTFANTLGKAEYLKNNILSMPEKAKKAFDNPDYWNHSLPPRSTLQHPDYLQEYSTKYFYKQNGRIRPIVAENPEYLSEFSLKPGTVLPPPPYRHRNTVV
Description: as §1

MEK6 = target: T20, MEK6 (Homo sapiens, UniProt P52564); settings: read-out: Percent Control
T20 construct: purchased Eurofins Discovery (DiscoverX KINOMEscan scanMAX)
Description: as §1

CAMK2A = target: T21, CAMK2A (Homo sapiens, UniProt Q9UQM7); settings: read-out: Percent Control
T21 construct: purchased Eurofins Discovery (DiscoverX KINOMEscan scanMAX)
T21 sequence (Q9UQM7 whole entry): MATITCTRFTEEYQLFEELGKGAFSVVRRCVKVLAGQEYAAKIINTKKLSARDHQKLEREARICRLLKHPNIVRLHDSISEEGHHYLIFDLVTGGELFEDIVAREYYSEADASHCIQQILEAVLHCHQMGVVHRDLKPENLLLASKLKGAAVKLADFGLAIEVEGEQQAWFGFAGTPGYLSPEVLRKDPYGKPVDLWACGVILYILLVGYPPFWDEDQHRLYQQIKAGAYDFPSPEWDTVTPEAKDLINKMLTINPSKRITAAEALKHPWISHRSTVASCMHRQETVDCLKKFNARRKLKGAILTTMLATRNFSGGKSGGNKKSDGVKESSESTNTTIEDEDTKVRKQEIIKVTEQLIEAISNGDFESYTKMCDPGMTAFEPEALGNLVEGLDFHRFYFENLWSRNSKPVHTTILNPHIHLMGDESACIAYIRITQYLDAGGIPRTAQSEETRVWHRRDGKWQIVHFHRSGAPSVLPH
Description: as §1

TRKC = target: T22, TRKC (Homo sapiens, UniProt Q16288); settings: read-out: Percent Control
T22 construct: purchased Eurofins Discovery (DiscoverX KINOMEscan scanMAX)
Description: as §1

ROCK1 = target: T23, ROCK1 (Homo sapiens, UniProt Q13464); settings: read-out: Percent Control
T23 construct: purchased Eurofins Discovery (DiscoverX KINOMEscan scanMAX)
Description: as §1

AKT1 = target: T24, AKT1 (Homo sapiens, UniProt P31749); settings: read-out: Percent Control
T24 construct: purchased Eurofins Discovery (DiscoverX KINOMEscan scanMAX)
T24 sequence (P31749 whole entry): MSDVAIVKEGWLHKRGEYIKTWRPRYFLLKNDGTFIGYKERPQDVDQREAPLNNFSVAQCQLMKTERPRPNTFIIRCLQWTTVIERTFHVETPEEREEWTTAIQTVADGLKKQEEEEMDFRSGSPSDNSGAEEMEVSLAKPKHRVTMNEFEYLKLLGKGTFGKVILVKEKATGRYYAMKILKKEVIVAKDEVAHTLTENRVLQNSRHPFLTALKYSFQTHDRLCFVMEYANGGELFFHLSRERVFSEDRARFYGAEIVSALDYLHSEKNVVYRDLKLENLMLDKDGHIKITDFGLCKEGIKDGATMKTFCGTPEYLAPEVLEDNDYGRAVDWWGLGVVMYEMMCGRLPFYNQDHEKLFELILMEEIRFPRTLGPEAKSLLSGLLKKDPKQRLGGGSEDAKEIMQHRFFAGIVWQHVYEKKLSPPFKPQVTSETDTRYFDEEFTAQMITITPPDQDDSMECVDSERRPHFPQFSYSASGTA
Description: as §1

RET(M918T) = target: T25, RET(M918T) (Homo sapiens, UniProt P07949, M918T); settings: read-out: Percent Control
T25 construct: purchased Eurofins Discovery (DiscoverX KINOMEscan scanMAX)
Description: as §1

HIPK3 = target: T26, HIPK3 (Homo sapiens, UniProt Q9H422); settings: read-out: Percent Control
T26 construct: purchased Eurofins Discovery (DiscoverX KINOMEscan scanMAX)
Description: as §1

MYO3B = target: T27, MYO3B (Homo sapiens, UniProt Q8WXR4); settings: read-out: Percent Control
T27 construct: purchased Eurofins Discovery (DiscoverX KINOMEscan scanMAX)
Description: as §1

MET = target: T28, MET (Homo sapiens, UniProt P08581); settings: read-out: Percent Control
T28 construct: purchased Eurofins Discovery (DiscoverX KINOMEscan scanMAX)
T28 sequence (P08581 25-1390): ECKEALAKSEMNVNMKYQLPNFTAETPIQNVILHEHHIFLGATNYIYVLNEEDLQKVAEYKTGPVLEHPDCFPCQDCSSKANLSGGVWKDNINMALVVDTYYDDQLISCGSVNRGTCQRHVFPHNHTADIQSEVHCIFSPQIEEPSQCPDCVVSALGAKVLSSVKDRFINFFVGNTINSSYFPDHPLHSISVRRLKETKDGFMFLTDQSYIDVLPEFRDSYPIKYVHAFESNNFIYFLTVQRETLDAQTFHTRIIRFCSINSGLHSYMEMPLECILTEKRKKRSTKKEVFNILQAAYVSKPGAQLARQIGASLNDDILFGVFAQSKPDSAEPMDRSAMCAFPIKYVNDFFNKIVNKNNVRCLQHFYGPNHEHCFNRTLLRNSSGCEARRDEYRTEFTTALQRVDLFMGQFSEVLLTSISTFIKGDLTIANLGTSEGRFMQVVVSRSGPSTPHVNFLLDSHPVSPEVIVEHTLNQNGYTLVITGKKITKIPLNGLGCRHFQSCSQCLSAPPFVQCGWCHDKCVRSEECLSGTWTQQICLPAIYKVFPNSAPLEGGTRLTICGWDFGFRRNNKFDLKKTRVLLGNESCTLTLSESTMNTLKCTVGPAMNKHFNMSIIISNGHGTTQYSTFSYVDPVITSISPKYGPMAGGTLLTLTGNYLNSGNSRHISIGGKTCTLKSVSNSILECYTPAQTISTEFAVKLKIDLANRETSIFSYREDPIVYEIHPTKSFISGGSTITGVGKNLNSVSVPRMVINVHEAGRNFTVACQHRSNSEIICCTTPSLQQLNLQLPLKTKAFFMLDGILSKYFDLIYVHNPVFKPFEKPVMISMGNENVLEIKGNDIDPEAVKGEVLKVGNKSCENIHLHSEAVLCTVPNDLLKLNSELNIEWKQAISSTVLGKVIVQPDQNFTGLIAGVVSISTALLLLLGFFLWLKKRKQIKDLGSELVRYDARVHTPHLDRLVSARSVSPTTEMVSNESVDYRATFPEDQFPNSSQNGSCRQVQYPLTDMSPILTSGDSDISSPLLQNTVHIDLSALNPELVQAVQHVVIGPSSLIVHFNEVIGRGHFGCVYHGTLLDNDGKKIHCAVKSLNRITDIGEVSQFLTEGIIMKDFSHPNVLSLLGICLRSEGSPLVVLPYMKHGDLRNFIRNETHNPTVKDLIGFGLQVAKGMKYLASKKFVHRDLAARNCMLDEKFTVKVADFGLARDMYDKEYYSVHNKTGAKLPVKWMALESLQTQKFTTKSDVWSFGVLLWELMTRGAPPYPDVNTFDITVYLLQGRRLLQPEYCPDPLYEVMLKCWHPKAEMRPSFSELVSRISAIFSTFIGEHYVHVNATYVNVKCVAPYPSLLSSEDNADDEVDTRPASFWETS
Description: as §1

TTK = target: T29, TTK (Homo sapiens, UniProt P33981); settings: read-out: Percent Control
T29 construct: purchased Eurofins Discovery (DiscoverX KINOMEscan scanMAX)
Description: as §1

EPHB6 = target: T30, EPHB6 (Homo sapiens, UniProt O15197); settings: read-out: Percent Control
T30 construct: purchased Eurofins Discovery (DiscoverX KINOMEscan scanMAX)
Description: as §1

FLT3(ITD,F691L) = test system: FLT3(ITD,F691L)
Description: as §1

PRKCH = target: T31, PRKCH (Homo sapiens, UniProt P24723); settings: read-out: Percent Control
T31 construct: purchased Eurofins Discovery (DiscoverX KINOMEscan scanMAX)
Description: as §1

[1] = target: T32, RSK1(Kin.Dom.1-N-terminal) (Homo sapiens, UniProt Q15418); settings: read-out: Percent Control
T32 construct: RSK1(Kin.Dom.1-N-terminal); purchased Eurofins Discovery (DiscoverX KINOMEscan scanMAX)
Description: as §1

SNARK = target: T33, SNARK (Homo sapiens, UniProt Q9H093); settings: read-out: Percent Control
T33 construct: purchased Eurofins Discovery (DiscoverX KINOMEscan scanMAX)
Description: as §1

Cc1cc(Nc2ccc(F)c(CC3(C(=O)N4CCC(F)(CN5CCN(c6ccc(N7CCC(=O)NC7=O)cn6)CC5)CC4)CCN(Cc4cccc(Cl)c4F)CC3)n2)n[nH]1 [SK5527]
remaining binding at 0.1 µM (AKT3; 100 nM): 86%
remaining binding at 1 µM (AKT3; 1000 nM): 91%
remaining binding at 0.1 µM (MRCKA; 100 nM): 100%
remaining binding at 1 µM (MRCKA; 1000 nM): 93%
remaining binding at 0.1 µM (SNRK; 100 nM): 71%
remaining binding at 1 µM (SNRK; 1000 nM): 53%
remaining binding at 0.1 µM (PCTK1; 100 nM): 89%
remaining binding at 1 µM (PCTK1; 1000 nM): 88%
remaining binding at 0.1 µM (ROCK2; 100 nM): 100%
remaining binding at 1 µM (ROCK2; 1000 nM): 45%
remaining binding at 0.1 µM (ULK3; 100 nM): 85%
remaining binding at 1 µM (ULK3; 1000 nM): 86%
remaining binding at 0.1 µM (PAK6; 100 nM): 100%
remaining binding at 1 µM (PAK6; 1000 nM): 100%
remaining binding at 0.1 µM (LYN; 100 nM): 78%
remaining binding at 1 µM (LYN; 1000 nM): 94%
remaining binding at 0.1 µM (PIP5K1A; 100 nM): 70%
remaining binding at 1 µM (PIP5K1A; 1000 nM): 76%
remaining binding at 0.1 µM (RIPK1; 100 nM): 100%
remaining binding at 1 µM (RIPK1; 1000 nM): 86%
remaining binding at 0.1 µM (IRAK3; 100 nM): 100%
remaining binding at 1 µM (IRAK3; 1000 nM): 100%
remaining binding at 0.1 µM (EGFR(G719S); 100 nM): 94%
remaining binding at 1 µM (EGFR(G719S); 1000 nM): 100%
remaining binding at 0.1 µM (BRAF; 100 nM): 100%
remaining binding at 1 µM (BRAF; 1000 nM): 100%
remaining binding at 0.1 µM (CAMK4; 100 nM): 100%
remaining binding at 1 µM (CAMK4; 1000 nM): 100%
remaining binding at 0.1 µM (EIF2AK1; 100 nM): 81%
remaining binding at 1 µM (EIF2AK1; 1000 nM): 70%
remaining binding at 0.1 µM (PAK7; 100 nM): 98%
remaining binding at 1 µM (PAK7; 1000 nM): 74%
remaining binding at 0.1 µM (TNIK; 100 nM): 96%
remaining binding at 1 µM (TNIK; 1000 nM): 90%
remaining binding at 0.1 µM (PRKCD; 100 nM): 100%
remaining binding at 1 µM (PRKCD; 1000 nM): 100%
remaining binding at 0.1 µM (ERBB4; 100 nM): 100%
remaining binding at 1 µM (ERBB4; 1000 nM): 100%
remaining binding at 0.1 µM (MEK6; 100 nM): 100%
remaining binding at 1 µM (MEK6; 1000 nM): 94%
remaining binding at 0.1 µM (CAMK2A; 100 nM): 98%
remaining binding at 1 µM (CAMK2A; 1000 nM): 100%
remaining binding at 0.1 µM (TRKC; 100 nM): 97%
remaining binding at 1 µM (TRKC; 1000 nM): 76%
remaining binding at 0.1 µM (ROCK1; 100 nM): 96%
remaining binding at 1 µM (ROCK1; 1000 nM): 81%
remaining binding at 0.1 µM (AKT1; 100 nM): 78%
remaining binding at 1 µM (AKT1; 1000 nM): 100%
remaining binding at 0.1 µM (RET(M918T); 100 nM): 95%
remaining binding at 1 µM (RET(M918T); 1000 nM): 38%
remaining binding at 0.1 µM (HIPK3; 100 nM): 100%
remaining binding at 1 µM (HIPK3; 1000 nM): 66%
remaining binding at 0.1 µM (MYO3B; 100 nM): 100%
remaining binding at 1 µM (MYO3B; 1000 nM): 100%
remaining binding at 0.1 µM (MET; 100 nM): 94%
remaining binding at 1 µM (MET; 1000 nM): 81%
remaining binding at 0.1 µM (TTK; 100 nM): 100%
remaining binding at 1 µM (TTK; 1000 nM): 100%
remaining binding at 0.1 µM (EPHB6; 100 nM): 93%
remaining binding at 1 µM (EPHB6; 1000 nM): 85%
Percent Control (FLT3(ITD,F691L); 100 nM): 100%
Percent Control (FLT3(ITD,F691L); 1000 nM): 75%
remaining binding at 0.1 µM (PRKCH; 100 nM): 96%
remaining binding at 1 µM (PRKCH; 1000 nM): 100%
remaining binding at 0.1 µM ([1]; 100 nM): 100%
remaining binding at 1 µM ([1]; 1000 nM): 100%
remaining binding at 0.1 µM (SNARK; 100 nM): 86%
remaining binding at 1 µM (SNARK; 1000 nM): 76%
